Assay results reported in ChEMBL document CHEMBL1201862, “PubChem BioAssay data set” (2004).
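Test compounds were applied to cells in 96-well plates for 48 hours at 5 doses. GI50 marks 50% less growth.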 Activity calls are given as the source filed them. No stated cut-off is given here; in the data, active = GI50 up to about 1.1 µM and inactive = higher.

Experiments:
Assay in all cases: inhibition of tumour cell growth, NCI panel, 48 h
Malme-3M = system: Malme-3M
NCI-H23 = system: NCI-H23
HT-29 = system: HT-29
SNB-19 = system: SNB-19
UACC-62 = system: UACC-62
SK-MEL-5 = system: SK-MEL-5
OVCAR-4 = system: OVCAR-4
A498 = system: A498
Hs-578T = system: Hs-578T
SN12C = system: SN12C
CAKI-1 = system: CAKI-1
OVCAR-3 = system: OVCAR-3
SW-620 = system: SW-620
M14 = system: M14
U-251 = system: U-251
LOX IMVI = system: LOX IMVI
MOLT-4 = system: MOLT-4
CCRF-CEM = system: CCRF-CEM
SK-MEL-28 = system: SK-MEL-28
RPMI-8226 = system: RPMI-8226
HCT-116 = system: HCT-116
NCI-H226 = system: NCI-H226
T47D = system: T47D
HOP-62 = system: HOP-62
SNB-75 = system: SNB-75
BT-549 = system: BT-549
COLO 205 = system: COLO 205
NCI-H460 = system: NCI-H460
UACC-257 = system: UACC-257
NCI-H522 = system: NCI-H522
786-0 = system: 786-0
SF-268 = system: SF-268
HCC 2998 = system: HCC 2998
SR = system: SR
SF-295 = system: SF-295
K562 = system: K562
RXF 393 = system: RXF 393
UO-31 = system: UO-31
ACHN = system: ACHN
A549 = system: A549
MDA-N = system: MDA-N
OVCAR-5 = system: OVCAR-5
HCT-15 = system: HCT-15
HOP-92 = system: HOP-92
HL-60 = system: HL-60
SK-MEL-2 = system: SK-MEL-2
TK-10 = system: TK-10
SF-539 = system: SF-539
IGROV-1 = system: IGROV-1
SK-OV-3 = system: SK-OV-3
MCF7 = system: MCF7
KM12 = system: KM12
PC-3 = system: PC-3
OVCAR-8 = system: OVCAR-8
NCI/ADR-RES = system: NCI/ADR-RES
MDA-MB-231 = system: MDA-MB-231
MDA-MB-435 = system: MDA-MB-435
DU-145 = system: DU-145
EKVX = system: EKVX

With `O=C(O)CN1CCNCCN(CC(=O)O)CC1` the GI50 (Malme-3M) was 2.35 µM (inactive), the GI50 (NCI-H23) was 3.25 µM (inactive) and the GI50 (HT-29) was 2.38 µM (inactive). The GI50 (SNB-19) was > 100 µM (inactive), the GI50 (UACC-62) was 12.6 µM (inactive) and the GI50 (SK-MEL-5) was 5.48 µM (inactive). For the same compound, the GI50 (OVCAR-4) was 38.8 µM (inactive), the GI50 (A498) was 3.42 µM (inactive) and the GI50 (Hs-578T) was > 66.1 µM (inactive). For the same compound, the GI50 (SN12C) was > 100 µM (inactive), the GI50 (CAKI-1) was > 100 µM (inactive) and the GI50 (OVCAR-3) was 6.49 µM (inactive). For the same compound, the GI50 (SW-620) was 3.4 µM (inactive), the GI50 (M14) was 25.7 µM (inactive) and the GI50 (U-251) was 28.2 µM (inactive). The GI50 (LOX IMVI) was 17.3 µM (inactive), the GI50 (MOLT-4) was 4.81 µM (inactive) and the GI50 (CCRF-CEM) was 5.47 µM (inactive). The GI50 (SK-MEL-28) was 33.8 µM (inactive), the GI50 (RPMI-8226) was 7.23 µM (inactive) and the GI50 (HCT-116) was 3.36 µM (inactive). The GI50 (NCI-H226) was 9.93 µM (inactive), the GI50 (T47D) was > 100 µM (inactive) and the GI50 (HOP-62) was > 27.7 µM (inactive). The GI50 (SNB-75) was 12.3 µM (inactive), the GI50 (BT-549) was > 100 µM (inactive) and the GI50 (COLO 205) was 2.01 µM (inactive). For the same compound, the GI50 (NCI-H460) was 7.66 µM (inactive), the GI50 (UACC-257) was 15.2 µM (inactive) and the GI50 (NCI-H522) was 3.28 µM (inactive). The GI50 (786-0) was 5.48 µM (inactive), the GI50 (SF-268) was 89.1 µM (inactive) and the GI50 (HCC 2998) was 10.6 µM (inactive). The GI50 (SR) was 3.84 µM (inactive), the GI50 (SF-295) was > 69 µM (inactive) and the GI50 (K562) was 3.76 µM (inactive). The GI50 (RXF 393) was 13.6 µM (inactive), the GI50 (UO-31) was 10.2 µM (inactive) and the GI50 (ACHN) was > 84.5 µM (inactive). The GI50 (A549) was 14.8 µM (inactive), the GI50 (MDA-N) was 11.4 µM (inactive) and the GI50 (OVCAR-5) was > 22.1 µM (inactive). The GI50 (HCT-15) was 3.79 µM, the GI50 (HOP-92) was 8.38 µM (inactive) and the GI50 (HL-60) was 3.08 µM (inactive). The GI50 (SK-MEL-2) was 26.4 µM (inactive), the GI50 (TK-10) was 8.2 µM (inactive) and the GI50 (SF-539) was 13 µM (inactive). The GI50 (IGROV-1) was 12.6 µM (inactive), the GI50 (SK-OV-3) was 38.4 µM (inactive) and the GI50 (MCF7) was 3.73 µM (inactive). For the same compound, the GI50 (KM12) was 16.8 µM (inactive), the GI50 (PC-3) was 18.1 µM (inactive) and the GI50 (OVCAR-8) was 2.63 µM (inactive). For the same compound, the GI50 (NCI/ADR-RES) was 2.44 µM (inactive), the GI50 (MDA-MB-231) was > 34 µM (inactive) and the GI50 (MDA-MB-435) was 11.6 µM (inactive). For the same compound, the GI50 (DU-145) was > 100 µM (inactive) and the GI50 (EKVX) was 12.5 µM (inactive).
In the case of `CN(C)c1ccc(C=C2C(=O)NC(=S)NC2=O)c2ccccc12`, the GI50 (Malme-3M) is reported as 49.9 µM (inactive), the GI50 (NCI-H23) is reported as 71.9 µM (inactive) and the GI50 (HT-29) is reported as > 100 µM (inactive). The GI50 (SNB-19) was 61.2 µM (inactive), the GI50 (UACC-62) was > 100 µM (inactive) and the GI50 (SK-MEL-5) was > 100 µM (inactive). The GI50 (OVCAR-4) was > 100 µM (inactive), the GI50 (A498) was 53.7 µM (inactive) and the GI50 (Hs-578T) was 26.5 µM (inactive). The GI50 (SN12C) was 68.4 µM (inactive), the GI50 (CAKI-1) was 98.9 µM (inactive) and the GI50 (OVCAR-3) was 50.9 µM (inactive). For the same compound, the GI50 (SW-620) was 46.6 µM (inactive), the GI50 (M14) was > 100 µM (inactive) and the GI50 (U-251) was 34.3 µM (inactive). The GI50 (LOX IMVI) was 26.9 µM (inactive), the GI50 (MOLT-4) was 29.6 µM (inactive) and the GI50 (CCRF-CEM) was 38.6 µM (inactive). For the same compound, the GI50 (SK-MEL-28) was 77.4 µM (inactive), the GI50 (RPMI-8226) was 39.4 µM (inactive) and the GI50 (HCT-116) was > 100 µM (inactive). For the same compound, the GI50 (NCI-H226) was > 100 µM (inactive), the GI50 (T47D) was > 100 µM (inactive) and the GI50 (HOP-62) was > 100 µM (inactive). For the same compound, the GI50 (SNB-75) was 30.1 µM (inactive), the GI50 (BT-549) was 61 µM (inactive) and the GI50 (COLO 205) was > 100 µM (inactive). The GI50 (NCI-H460) was > 100 µM (inactive), the GI50 (UACC-257) was > 100 µM (inactive) and the GI50 (NCI-H522) was 18.5 µM (inactive). For the same compound, the GI50 (786-0) was 39.8 µM (inactive), the GI50 (SF-268) was 29 µM (inactive) and the GI50 (HCC 2998) was > 100 µM (inactive). The GI50 (SR) was 33.5 µM (inactive), the GI50 (SF-295) was > 100 µM (inactive) and the GI50 (K562) was 40.9 µM (inactive). For the same compound, the GI50 (RXF 393) was 26.3 µM (inactive), the GI50 (UO-31) was 60.4 µM (inactive) and the GI50 (ACHN) was > 100 µM (inactive). For the same compound, the GI50 (A549) was > 100 µM (inactive), the GI50 (MDA-N) was 42.7 µM (inactive) and the GI50 (OVCAR-5) was > 100 µM (inactive). The GI50 (HCT-15) was 41.7 µM, the GI50 (HOP-92) was 25.1 µM (inactive) and the GI50 (HL-60) was 33.7 µM (inactive). For the same compound, the GI50 (SK-MEL-2) was 62.8 µM (inactive), the GI50 (TK-10) was > 100 µM (inactive) and the GI50 (SF-539) was 36 µM (inactive). The GI50 (IGROV-1) was 36.1 µM (inactive), the GI50 (SK-OV-3) was > 100 µM (inactive) and the GI50 (MCF7) was 67.6 µM (inactive). For the same compound, the GI50 (KM12) was > 100 µM (inactive), the GI50 (PC-3) was > 100 µM (inactive) and the GI50 (OVCAR-8) was 27 µM (inactive). For the same compound, the GI50 (NCI/ADR-RES) was > 100 µM (inactive), the GI50 (MDA-MB-231) was > 100 µM (inactive) and the GI50 (MDA-MB-435) was 38.9 µM (inactive). For the same compound, the GI50 (DU-145) was > 100 µM (inactive) and the GI50 (EKVX) was > 100 µM (inactive).
